Assay results reported in PubChem BioAssay AID1963971 (Molecular Pharmacology Branch, DTP, NCI, 2024).
“And” between values parts separate entries of the source, which are not always exact repeats. Identical values can stand only once.

Test system: 953936-095-R-J2-PDC spheroids with HUVEC/MSC, viability
Test: Anticancer human tumor 953936-095-R-J2-PDC patient-derived cervical squamous cell carcinoma cell line growth inhibition [PI3K]
Details: for viability, T/C: stronger effect = lower value
In short: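 Three cell types, namely tumor cells, endothelial cells and mesenchymal stem cells, formed each spheroid. Combinations with four PI3K inhibitors were screened at clinically achievable concentrations decreasing by half-log, and spheroid viability was recorded.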

[1] = curve of first compound, second compound 0.0316 µM
[2] = curve of first compound, second compound 0.1 µM
[3] = curve of first compound, second compound 0.316 µM
[4] = curve of first compound, second compound 1 µM
[5] = curve of first compound, second compound 3.16 µM
[6] = curve of first compound, second compound 10 µM
[7] = second compound 0.0316 µM, first compound 0.0316 µM
[8] = second compound 0.0316 µM, first compound 0.1 µM
[9] = second compound 0.0316 µM, first compound 0.316 µM
[10] = second compound 0.0316 µM, first compound 1 µM
[11] = second compound 0.0316 µM, first compound 3.16 µM
[12] = second compound 0.0316 µM, first compound 10 µM
[13] = second compound 0.1 µM, first compound 0.0316 µM
[14] = second compound 0.1 µM, first compound 0.1 µM
[15] = second compound 0.1 µM, first compound 0.316 µM
[16] = second compound 0.1 µM, first compound 1 µM
[17] = second compound 0.1 µM, first compound 3.16 µM
[18] = second compound 0.1 µM, first compound 10 µM
[19] = second compound 0.316 µM, first compound 0.0316 µM
[20] = second compound 0.316 µM, first compound 0.1 µM
[21] = second compound 0.316 µM, first compound 0.316 µM
[22] = second compound 0.316 µM, first compound 1 µM
[23] = second compound 0.316 µM, first compound 3.16 µM
[24] = second compound 0.316 µM, first compound 10 µM
[25] = second compound 1 µM, first compound 0.0316 µM
[26] = second compound 1 µM, first compound 0.1 µM
[27] = second compound 1 µM, first compound 0.316 µM
[28] = second compound 1 µM, first compound 1 µM
[29] = second compound 1 µM, first compound 3.16 µM
[30] = second compound 1 µM, first compound 10 µM
[31] = second compound 3.16 µM, first compound 0.0316 µM
[32] = second compound 3.16 µM, first compound 0.1 µM
[33] = second compound 3.16 µM, first compound 0.316 µM
[34] = second compound 3.16 µM, first compound 1 µM
[35] = second compound 3.16 µM, first compound 3.16 µM
[36] = second compound 3.16 µM, first compound 10 µM
[37] = second compound 10 µM, first compound 0.0316 µM
[38] = second compound 10 µM, first compound 0.1 µM
[39] = second compound 10 µM, first compound 0.316 µM
[40] = second compound 10 µM, first compound 1 µM
[41] = second compound 10 µM, first compound 3.16 µM
[42] = second compound 10 µM, first compound 10 µM
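Further: spheroids exposed to compounds for seven days before read-out.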

Cn1ncc(Cl)c1-c1cc(C(=O)NC(CN)Cc2cccc(F)c2)sc1Cl (configuration not stated) + CC(Nc1ncnc2nc[nH]c12)c1cc2cccc(Cl)c2c(=O)n1-c1ccccc1
IC50 [1]: 630 nM | IC50 [2]: 617 nM | IC50 [3]: 547 nM | IC50 [4]: 490 nM | IC50 [5]: 467 nM | IC50 [6]: 146 nM | viability, T/C [7]: 96.5% | viability, T/C [8]: 90.2% | viability, T/C [9]: 67.9% | viability, T/C [10]: 36.9% | viability, T/C [11]: 21.8% | viability, T/C [12]: 12% | viability, T/C [13]: 95.2% | viability, T/C [14]: 90% | viability, T/C [15]: 67% | viability, T/C [16]: 37.5% | viability, T/C [17]: 20% | viability, T/C [18]: 14.9% | viability, T/C [19]: 94.1% | viability, T/C [20]: 81.6% | viability, T/C [21]: 58.4% | viability, T/C [22]: 40% | viability, T/C [23]: 22.4% | viability, T/C [24]: 12.6% | viability, T/C [25]: 95.5% | viability, T/C [26]: 83.5% | viability, T/C [27]: 58.1% | viability, T/C [28]: 36.3% | viability, T/C [29]: 18.1% | viability, T/C [30]: 13.5% | viability, T/C [31]: 82.3% | viability, T/C [32]: 77.8% | viability, T/C [33]: 56.7% | viability, T/C [34]: 34.4% | viability, T/C [35]: 18% | viability, T/C [36]: 8.95% | viability, T/C [37]: 55.5% | viability, T/C [38]: 54.5% | viability, T/C [39]: 42.9% | viability, T/C [40]: 30.5% | viability, T/C [41]: 14.6% | viability, T/C [42]: 5.78%

CNC(=O)c1ccc(N2C(=S)N(c3ccc(C#N)c(C(F)(F)F)c3)C(=O)C2(C)C)cc1F + Cc1nc(NC(=O)N2CCCC2C(N)=O)sc1-c1ccnc(C(C)(C)C(F)(F)F)c1
IC50 [1]: > 10000 nM | IC50 [2]: > 10000 nM | IC50 [3]: > 10000 nM | IC50 [4]: 53 nM | IC50 [5]: < 31.6 nM | IC50 [6]: < 31.6 nM | viability, T/C [7]: 85.4% | viability, T/C [8]: 92.7% | viability, T/C [9]: 108% | viability, T/C [10]: 105% | viability, T/C [11]: 83.5% | viability, T/C [12]: 79.7% | viability, T/C [13]: 81.2% | viability, T/C [14]: 93% | viability, T/C [15]: 78.3% | viability, T/C [16]: 76.9% | viability, T/C [17]: 74.7% | viability, T/C [18]: 73.9% | viability, T/C [19]: 64.1% | viability, T/C [20]: 65.9% | viability, T/C [21]: 65.3% | viability, T/C [22]: 59.9% | viability, T/C [23]: 62.8% | viability, T/C [24]: 54.3% | viability, T/C [25]: 54.1% | viability, T/C [26]: 44.2% | viability, T/C [27]: 44.3% | viability, T/C [28]: 48.6% | viability, T/C [29]: 41.4% | viability, T/C [30]: 38.1% | viability, T/C [31]: 26.6% | viability, T/C [32]: 29.8% | viability, T/C [33]: 24.4% | viability, T/C [34]: 25.5% | viability, T/C [35]: 30% | viability, T/C [36]: 24.8% | viability, T/C [37]: 12.2% | viability, T/C [38]: 11.2% | viability, T/C [39]: 12.1% | viability, T/C [40]: 11% | viability, T/C [41]: 11.6% | viability, T/C [42]: 10.7%

CCCS(=O)(=O)Nc1ccc(F)c(C(=O)c2c[nH]c3ncc(-c4ccc(Cl)cc4)cc23)c1F + COc1c(OCCCN2CCOCC2)ccc2c3n(c(=NC(=O)c4cnc(N)nc4)nc12)CCN3
IC50 (curve of first compound, second compound 0.00316 µM): 5050 nM | IC50 (curve of first compound, second compound 0.01 µM): 4630 nM | IC50 [1]: < 31.6 nM | IC50 [2]: < 31.6 nM | IC50 [3]: < 31.6 nM | IC50 [4]: < 31.6 nM | viability, T/C (second compound 0.00316 µM, first compound 0.0316 µM): 81.3% | viability, T/C (second compound 0.00316 µM, first compound 0.1 µM): 94.1% | viability, T/C (second compound 0.00316 µM, first compound 0.316 µM): 85.1% | viability, T/C (second compound 0.00316 µM, first compound 1 µM): 93.1% | viability, T/C (second compound 0.00316 µM, first compound 3.16 µM): 83.7% | viability, T/C (second compound 0.00316 µM, first compound 10 µM): 0.64% | viability, T/C (second compound 0.01 µM, first compound 0.0316 µM): 73.6% | viability, T/C (second compound 0.01 µM, first compound 0.1 µM): 72.5% | viability, T/C (second compound 0.01 µM, first compound 0.316 µM): 73.8% | viability, T/C (second compound 0.01 µM, first compound 1 µM): 78.4% | viability, T/C (second compound 0.01 µM, first compound 3.16 µM): 74.5% | viability, T/C (second compound 0.01 µM, first compound 10 µM): 0.66% | viability, T/C [7]: 50.7% | viability, T/C [8]: 46% | viability, T/C [9]: 40.8% | viability, T/C [10]: 45.7% | viability, T/C [11]: 37.6% | viability, T/C [12]: 2.52% | viability, T/C [13]: 18.3% | viability, T/C [14]: 17.4% | viability, T/C [15]: 17.1% | viability, T/C [16]: 18.9% | viability, T/C [17]: 17.3% | viability, T/C [18]: 0.92% | viability, T/C [19]: 7.34% | viability, T/C [20]: 5.95% | viability, T/C [21]: 6.85% | viability, T/C [22]: 7.94% | viability, T/C [23]: 7.74% | viability, T/C [24]: 1.13% | viability, T/C [25]: 1.84% | viability, T/C [26]: 1.61% | viability, T/C [27]: 1.73% | viability, T/C [28]: 2.48% | viability, T/C [29]: 2.83% | viability, T/C [30]: 0.45%

CC(C)n1nc(-c2ccc3oc(N)nc3c2)c2c(N)ncnc21 + CC(Nc1ncnc2nc[nH]c12)c1cc2cccc(Cl)c2c(=O)n1-c1ccccc1
IC50 [1]: 33.8 nM | IC50 [2]: 29 nM | IC50 [3]: 19.3 nM | IC50 [4]: 30.7 nM | IC50 [5]: 21.8 nM | IC50 [6]: 11.3 nM | viability, T/C (second compound 0.0316 µM, first compound 0.000316 µM): 88.3% | viability, T/C (second compound 0.0316 µM, first compound 0.001 µM): 98.9% | viability, T/C (second compound 0.0316 µM, first compound 0.00316 µM): 93.9% | viability, T/C (second compound 0.0316 µM, first compound 0.01 µM): 73.9% | viability, T/C [7]: 53.7% | viability, T/C [8]: 18.2% | viability, T/C (second compound 0.1 µM, first compound 0.000316 µM): 101% | viability, T/C (second compound 0.1 µM, first compound 0.001 µM): 95% | viability, T/C (second compound 0.1 µM, first compound 0.00316 µM): 85.1% | viability, T/C (second compound 0.1 µM, first compound 0.01 µM): 77.1% | viability, T/C [13]: 46.3% | viability, T/C [14]: 16.5% | viability, T/C (second compound 0.316 µM, first compound 0.000316 µM): 112% | viability, T/C (second compound 0.316 µM, first compound 0.001 µM): 87.6% | viability, T/C (second compound 0.316 µM, first compound 0.00316 µM): 77.9% | viability, T/C (second compound 0.316 µM, first compound 0.01 µM): 66.9% | viability, T/C [19]: 46.8% | viability, T/C [20]: 17.2% | viability, T/C (second compound 1 µM, first compound 0.000316 µM): 95.1% | viability, T/C (second compound 1 µM, first compound 0.001 µM): 84.2% | viability, T/C (second compound 1 µM, first compound 0.00316 µM): 77.7% | viability, T/C (second compound 1 µM, first compound 0.01 µM): 65% | viability, T/C [25]: 56% | viability, T/C [26]: 15.9% | viability, T/C (second compound 3.16 µM, first compound 0.000316 µM): 73.3% | viability, T/C (second compound 3.16 µM, first compound 0.001 µM): 70.5% | viability, T/C (second compound 3.16 µM, first compound 0.00316 µM): 68.8% | viability, T/C (second compound 3.16 µM, first compound 0.01 µM): 68.8% | viability, T/C [31]: 41.1% | viability, T/C [32]: 14.6% | viability, T/C (second compound 10 µM, first compound 0.000316 µM): 57.7% | viability, T/C (second compound 10 µM, first compound 0.001 µM): 57.3% | viability, T/C (second compound 10 µM, first compound 0.00316 µM): 53.3% | viability, T/C (second compound 10 µM, first compound 0.01 µM): 52.8% | viability, T/C [37]: 29.9% | viability, T/C [38]: 12.8%

Cc1nc(NC(=O)N2CCCC2C(N)=O)sc1-c1ccnc(C(C)(C)C(F)(F)F)c1 (configuration not stated)
viability, T/C (compound 0.0316 µM): 90% [middle of 8 runs] | viability, T/C (compound 0.1 µM): 80.7% [middle of 8 runs] | viability, T/C (compound 0.316 µM): 64.2% [middle of 8 runs] | viability, T/C (compound 1 µM): 43.8% [middle of 8 runs] | viability, T/C (compound 3.16 µM): 28.4% [middle of 8 runs] | viability, T/C (compound 10 µM): 13.6% [middle of 8 runs] | IC50 (compound alone, run of 06/12/2023): 746 nM [middle of 8 runs]

C[C@@H](NC(=O)c1ncnc(N)c1Cl)c1ncc(C(=O)Nc2cc(C(F)(F)F)c(Cl)cn2)s1
viability, T/C (compound 0.0316 µM): 105% (2×) and 98.5% and 118% | viability, T/C (compound 0.1 µM): 104% (3×) and 103% | viability, T/C (compound 0.316 µM): 110% [middle of 4 runs] | viability, T/C (compound 1 µM): 115% [middle of 4 runs] | viability, T/C (compound 3.16 µM): 108% [middle of 4 runs] | viability, T/C (compound 10 µM): 102% [middle of 4 runs] | IC50 (curve of compound): > 10000 nM
